Assay results: US20100137315A1, “Sphingosine Kinase Inhibitors and Methods of Their Use” (APOGEE BIOTECHNOLOGY CORPORATION, priority 2005, published 2010)

Tests used:
[1] = molecular target: T1, recombinant human SK (Homo sapiens, UniProt Q9NYA1); assay: Inhibition of recombinant human SK, LC/MS/MS assay; format: biochemical; settings: 6 μg/ml compound
T1 construct: glutathione-S-transferase (GST) (N); made in house; host or cells: bacteria (pGEX vector)
Protocol: (§1) An assay for identifying inhibitors of recombinant human SK has been established (French et al., 2003, Cancer Res 63: 5962). cDNA for human SK was subcloned into a pGEX bacterial expression vector, which results in expression of the enzyme as a fusion protein with glutathione-S-transferase, and the fusion protein is then purified on a column of immobilized glutathione. SK activity is measured by incubation of the recombinant SK with [^3H]sphingosine and 1 mM ATP under defined conditions, followed by extraction of the assay mixture with chloroform:methanol under basic conditions. […] Radioactivity in aliquots of the aqueous phase is then quantified as a measure of [^3H]S1P formation. There is a low background level of partitioning of [^3H]sphingosine into the aqueous phase, and addition of the recombinant SK greatly increases the formation of [^3H]S1P.
In an alternate assay procedure, the recombinant human SK was incubated with unlabeled sphingosine and ATP as described above. After 30 minutes, the reactions were terminated by the addition of acetonitrile to directly extract the newly synthesized S1P. The amount of S1P in the samples is then quantified as follows. C17 base D-erythro-sphingosine and C17 S1P are used as internal standards for sphingosine and S1P, respectively. These seventeen-carbon fatty acid-linked sphingolipids are not naturally produced, making these analogs excellent standards. The lipids are then fractionation by High-Performance Liquid Chromatography using a C8-reverse phase column eluted with 1 mM methanolic ammonium formate/2 mM aqueous ammonium formate. A Finnigan LCQ Classic LC-MS/MS is used in the multiple reaction monitoring positive ionization mode to acquire ions at m/z of 300 (precursor ion)→282 (product ion) for sphingosine and 380→264 for S1P. Calibration curves are generated by plotting the peak area ratios of the synthetic standards for each sphingolipid, and used to determine the normalized amounts of sphingosine and S1P in the samples.
Each Compound of this invention was tested for its ability to inhibit recombinant SK using the LC/MS/MS assay described above. Typically, the Compounds were individually dissolved in dimethylsulfoxide and tested at a final concentration of 6 micrograms/ml.

[2] = test system: MCF-7 human breast adenocarcinoma cells; assay: Cytotoxicity, SRB assay, 48 h; format: cell-based; settings: Homo sapiens, MCF7; Table 6; 48 h, SRB, inhibition of cell proliferation; read-out: MCF-7 IC50
Protocol: To further assess the biological efficacies of the Compounds in intact cells, each Compound was evaluated for cytotoxicity using human cancer cell lines. These experiments followed methods that have been extensively used. Cell lines tested included MCF-7 human breast adenocarcinoma cells. The indicated cell lines were treated with varying doses of the test Compound for 48 h. Cell survival was then determined using the SRB binding assay (Skehan et al., 1990, J Natl Cancer Inst 82: 1107), and the concentration of compound that inhibited proliferation by 50% (the IC50) was calculated. Values (in μM) represent the mean±sd for replicate trials.

[3] = test system: endogenous SK in MDA-MB-231 human breast carcinoma cells; assay: Intact cell assay of endogenous SK ([3H]sphingosine to [3H]S1P); format: cell-based; settings: MDA-MB-231 cells, 20 μg/ml compound
Protocol: We have previously described an intact cell assay where, following treatment with a test compound, MDA-MB-231 human breast carcinoma cells are incubated with [^3H]sphingosine at a final concentration of 1 μM (French et al., 2003, Cancer Res 63: 5962). The cells take up the exogenous [^3H]sphingosine and convert it to [^3H]S1P through the action of endogenous SK. The resulting [^3H]S1P is isolated via charge-based separation as indicated above. […] For potency studies, MDA-MB-231 cells were exposure to varying concentrations of a test Compound and then assayed for conversion of [^3H]sphingosine to [^3H]S1P.

[4] = molecular target: T1, recombinant human SK; assay: Recombinant human SK assay with [3H]sphingosine; format: biochemical; settings: positive control
Protocol: as §1

T1 sequence (Q9NYA1 whole entry): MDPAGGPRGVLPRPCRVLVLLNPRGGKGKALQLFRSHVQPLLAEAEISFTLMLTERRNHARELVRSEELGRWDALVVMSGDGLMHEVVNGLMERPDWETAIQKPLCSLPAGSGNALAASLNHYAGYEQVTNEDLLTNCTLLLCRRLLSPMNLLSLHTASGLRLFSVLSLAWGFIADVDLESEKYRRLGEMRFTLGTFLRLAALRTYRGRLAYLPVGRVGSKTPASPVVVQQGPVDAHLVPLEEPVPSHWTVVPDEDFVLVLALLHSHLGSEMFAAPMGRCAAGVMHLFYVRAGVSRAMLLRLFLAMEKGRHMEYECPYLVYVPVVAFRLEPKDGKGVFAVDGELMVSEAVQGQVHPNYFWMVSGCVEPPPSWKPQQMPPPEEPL

SMILES | inhibition at 6 µg/mL [1] [%] | IC50 [2] [µM] | Cellular S1P (% inhibition) [3] [%] | concentrations at which SK activity is completely inhibited [4]
CCCC(=O)Oc1ccc(CCC(=O)Nc2nc(-c3ccc(Cl)cc3)cs2)cc1OC [Compound 29, Butyric acid 4-{2-[4-(4-chloro-phenyl)-thiazol-2-ylcarbamoyl]-ethyl}-2-methoxy-phenyl ester] | 0 | 26 | – | –
CCCC(=O)Oc1ccc(CC(=O)Nc2nc(-c3ccc(Cl)cc3)cs2)cc1[N+](=O)[O-] [Compound 30, Butyric acid 4-{[4-(4-chloro-phenyl)-thiazol-2-ylcarbamoyl]-methyl}-2-nitro-phenyl ester] | 0 | 32 | – | –
O=C(NCc1ccncc1)c1nc(-c2ccc(Cl)cc2)cs1 [Compound 34, 4-(4-Chloro-phenyl)thiazole-2-carboxylic acid (pyridin-4-ylmethyl)amide] | 0 | 38 | – | –
CN(C)c1ccc(CNC(=O)c2nc(-c3ccc(Cl)cc3)cs2)cc1 [Compound 35, 4-(4-Chloro-phenyl)-thiazole-2-carboxylic acid 4-dimethylamino-benzylamide] | 80 | 130 | – | –
O=C(Nc1nc2cc(Cl)ccc2o1)c1cccc(F)c1 [Compound 97, N-(5-Chloro-benzooxazol-2-yl)-3-fluoro-benzamide] | 71 | 1.7 | – | –
CCCCCCCCCCCCC/C=C/[C@@H](O)[C@H](CO)N(C)C [DMS, D-erythro-N,N-dimethylsphingosine] | – | – | – | above 25 μM

The next lines start with results.

inhibition at 6 µg/mL [1] [%] | SMILES | IC50 [2] [µM] | Cellular S1P (% inhibition) [3] [%] | concentrations at which SK activity is completely inhibited [4]
88 | CCCCCCCCCCCCCCCC(=O)Nc1nc(-c2ccc(Cl)cc2)cs1 [Compound 3, Hexadecanoic acid [4-(4-chloro-phenyl)-thiazol-2-yl]-amide] | 111 | 34 | –
73 | CCCC(=O)Oc1ccc(C=CC(=O)Nc2nc(-c3ccc(Cl)cc3)cs2)cc1 [Compound 15, Butyric acid 4-{2-[4-(4-chloro-phenyl)-thiazol-2-ylcarbamoyl]-vinyl}-phenyl ester] | 2.9 | – | –
44 | Clc1ccc(-c2csc(N(CCCc3ccccc3)CCCc3ccccc3)n2)cc1 [Compound 71, [4-(4-Chloro-phenyl)-thiazol-2-yl]-bis-(3-phenyl-propyl)-amine] | 111 | – | –
79 | Clc1ccc(-c2csc(N(Cc3ccccc3)Cc3ccccc3)n2)cc1 [Compound 72, Dibenzyl-[4-(4-chloro-phenyl)-thiazol-2-yl]-amine] | 127 | – | –
